Test results reported in patent publication US20240374579A1, “BICYCLIC PGDH INHIBITORS AND METHODS OF MAKING AND USING” (EPIRIUM BIO INC., priority 2021, published 2024).

Molecular target: T1, 15-PGDH/HPGD (Homo sapiens, UniProt P15428)
T1 construct: purchased R&D System 5660-DH
T1 sequence (P15428 1-266): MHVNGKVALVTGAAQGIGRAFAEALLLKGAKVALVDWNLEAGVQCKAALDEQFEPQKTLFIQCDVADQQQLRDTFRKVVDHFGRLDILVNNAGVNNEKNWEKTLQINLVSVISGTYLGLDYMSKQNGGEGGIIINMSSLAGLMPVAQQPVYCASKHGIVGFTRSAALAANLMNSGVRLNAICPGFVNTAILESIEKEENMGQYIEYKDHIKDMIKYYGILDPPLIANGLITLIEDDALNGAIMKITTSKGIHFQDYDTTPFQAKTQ
Assay: hPGDH inhibitor screening biochemical assay
Details: 10 nM enzyme, 15 μM PGE2, 0.25 mM NAD, fluorescence ex/em 340/485 nm
Experimental: A hydroxyprostaglandin dehydrogenase inhibition screening biochemical assay can be performed to assess the synthesized inhibitors provided herein. Provided herein is an exemplary biochemical assay for hPGDH inhibitor screening.
The in vitro biochemical assay can be performed in white, 384 plates in total 20 μl reaction volume consisting of 10 nM of 15-PGDH/HPGD (R&D System #5660-DH), 15 μM Prostaglandin E2 (Sigma, Cat #P5640-10MG) and 0.25 mM β-Nicotinamide adenine dinucleotide sodium salt (Sigma, Cat #N0632-5G) made in reaction buffer (50 mM Tris-HCl, pH 7.5, 0.01% Tween 20) at 10-point dose response curve for test/tool compounds. Briefly, 5 μl (4×) of compounds solution and 5 μl (final concentration, 10 nM) of enzyme solution is added to white 384 well plates and incubated for 10 mins at 37° C. 5 μl (4×) of Prostaglandin E2 and 5 μl (4×) of β-Nicotinamide adenine dinucleotide sodium salt is added to the wells and incubated for 10 mins at room temperature. Fluorescence is recorded at ex/em=340 nm/485 nm. The percentage ([…]) inhibition of enzyme activity was determined relative to positive control (1% DMSO) and IC50 was calculated using GraphPad prism software (four parameter-variable slope equation).

SMILES | IC50
CC1(C)CCN(C(=O)c2cnc3c(cnn3-c3ccc(-c4nnc[nH]4)cc3)c2)C1 [Compound C-51] | 100 to 1000 nM
CCO[C@@H]1CCN(C(=O)c2cnc3c(cnn3-c3ccc(-c4nnc[nH]4)cc3)c2)C1 [Compound C-44] | ≥ 1000 nM
CN(C)c1nc2ccc(-n3ncc4cc(C(=O)N5CCC(F)(F)CC5)cnc43)cn2n1 [Compound C-24] | ≥ 1000 nM
O=C(c1ccc2c(c1)ncn2-c1ccc(-c2ncn[nH]2)nc1)N1CCC(F)(F)CC1 [Compound C-15, (1-(6-(1H-1,2,4-triazol-5-yl)pyridin-3-yl)-1H-benzo[d]imidazol-5-yl)(4,4-difluoropiperidin-1-yl)methanone] | 100 to 1000 nM
C[C@H]1CCN(C(=O)c2cnc3c(cnn3-c3ccc(-c4nnc[nH]4)cc3)c2)C1 [Compound C-47] | ≥ 1000 nM
O=C(c1ccc2c(cnn2-c2ccc(-c3ncn[nH]3)cc2)c1)N1CCC(F)(F)CC1 [Compound C-13] | < 100 nM
O=C(c1ccc2c(cnn2-c2ccc(-c3ncn[nH]3)nc2)c1)N1CCC(F)(F)CC1 [Compound C-12] | < 100 nM
O=C(c1cnc2c(cnn2-c2ccc(-c3nnc[nH]3)cc2)c1)N1CCCC(F)(F)C1 [Compound C-31] | < 100 nM
O=C(c1ccc2c(c1)ncn2-c1ccc(-c2ncn[nH]2)cc1)N1CCC(F)(F)CC1 [Compound C-16, (1-(4-(1H-1,2,4-triazol-5-yl)phenyl)-1H-benzo[d]imidazol-5-yl)(4,4-difluoropiperidin-1-yl)methanone] | < 100 nM
C[C@@H]1CCN(C(=O)c2cnc3c(cnn3-c3ccc(-c4nnc[nH]4)cc3)c2)C1 [Compound C-46] | 100 to 1000 nM
O=C(O)c1ccc(-n2nnc3cc(C(=O)N4CCC(F)(F)CC4)cnc32)cc1 [Compound C-1, 4-(6-(4,4-difluoropiperidine-1-carbonyl)-3H-[1,2,3]triazolo[4,5-b]pyridin-3-yl)benzoic acid] | < 100 nM
O=C(O)c1ccc(-n2cnc3cc(C(=O)N4CCC(F)(F)CC4)ccc32)cc1 [Compound C-17, 4-(5-(4,4-difluoropiperidine-1-carbonyl)-1H-benzo[d]imidazol-1-yl) benzoic acid] | < 100 nM
CCO[C@H]1CCN(C(=O)c2cnc3c(cnn3-c3ccc(-c4nnc[nH]4)cc3)c2)C1 [Compound C-43] | 100 to 1000 nM
O=C(O)c1ccc(-n2ncc3cc(C(=O)N4CCC(F)(F)CC4)ccc32)cc1 [Compound C-14, 4-(5-(4,4-difluoropiperidine-1-carbonyl)-1H-indazol-1-yl) benzoic acid] | < 100 nM
O=C(c1cnc2c(cnn2-c2cc(Cl)cc(-c3nnc[nH]3)c2)c1)N1CCC(F)(F)CC1 [Compound C-62] | < 100 nM
O=C(c1cnc2c(c1)nnn2-c1ccc(-c2ncn[nH]2)cc1)N1CCC(F)(F)CC1 [Compound C-7, (3-(4-(1H-1,2,4-triazol-5-yl)phenyl)-3H-[1,2,3]triazolo[4,5-b]pyridin-6-yl) (4,4-difluoropiperidin-1-yl)methanone] | < 100 nM
CC(F)(F)[C@H]1CCN(C(=O)c2cnc3c(cnn3-c3ccc(-c4nnc[nH]4)cc3)c2)C1 [Compound C-61] | < 100 nM
C[C@H]1CCCN(C(=O)c2cnc3c(cnn3-c3cncc(C(N)=O)c3)c2)C1 [Compound C-35] | < 100 nM
O=C(Nc1cccc(-n2ncc3cc(C(=O)N4CCC(F)(F)CC4)cnc32)c1)C1CC1 [Compound C-49] | 100 to 1000 nM
O=C(c1cnc2c(cnn2-c2ccc(-c3nnc[nH]3)cc2)c1)N1CCCC(C(F)(F)F)C1 (centres unmarked) [Compound C-58] | 100 to 1000 nM
C[C@H]1CCCN(C(=O)c2cnc3c(cnn3-c3cncc(-c4nc[nH]n4)c3)c2)C1 [Compound C-34] | < 100 nM
O=C(c1cnc2c(cnn2-c2ccc(-c3nnc[nH]3)cc2)c1)N1CC2CC2C1 (centres unmarked) [Compound C-42] | 100 to 1000 nM
O=C(O)c1ccc(-n2ncc3cc(C(=O)N4CCC(F)(F)CC4)cnc32)cc1 [Compound C-2, 4-(5-(4,4-difluoropiperidine-1-carbonyl)-1H-pyrazolo[3,4-b]pyridin-1-yl) benzoic acid] | < 100 nM
C[C@H]1CCCN(C(=O)c2cnc3c(cnn3-c3ccc(-c4nnc[nH]4)nc3)c2)C1 [Compound C-20] | < 100 nM
O=C(O)c1ccc(-n2nnc3cc(C(=O)N4CCC(F)(F)CC4)ccc32)cc1 [Compound C-11, 4-(5-(4,4-difluoropiperidine-1-carbonyl)-1H-benzo[d][1,2,3]triazol-1-yl) benzoic acid] | 100 to 1000 nM

Results, then the compound that gave them:

IC50 | SMILES
100 to 1000 nM | CCOC(=O)Nc1cncc(-n2ncc3cc([S+]([O-])CC4CC4)cnc32)c1 (centres unmarked) [Compound C-90]
100 to 1000 nM | O=C(c1cnc2c(cnn2-c2ccc(-c3nnc[nH]3)c(F)c2)c1)N1CC[S+]([O-])CC1 [Compound C-69]
100 to 1000 nM | O=C(O)c1ccc(-n2cc3cc(C(=O)N4CCC(F)(F)CC4)ccc3n2)cc1 [Compound D-4, 4-(5-(4,4-difluoropiperidine-1-carbonyl)-2H-indazol-2-yl) benzoic acid]
< 100 nM | O=C(c1cnc2c(cnn2-c2ccc(-c3nnc[nH]3)c(F)c2)c1)N1CCSCC1 [Compound C-64]
100 to 1000 nM | O=C(c1ccn2c(-c3ccc(-c4ncn[nH]4)nc3)cnc2c1)N1CCC(F)(F)CC1 [Compound D-3, (3-(6-(1H-1,2,4-triazol-5-yl)pyridin-3-yl)imidazo[1,2-a]pyridin-7-yl)(4,4-difluoropiperidin-1-yl)methanone]
< 100 nM | O=C(c1cnc2c(cnn2-c2ccc(-c3nnc[nH]3)c(Cl)c2)c1)N1CCSCC1 [Compound C-68]
< 100 nM | O=C(O)c1ccc(-c2cnc3cc(C(=O)N4CCC(F)(F)CC4)ccn23)cc1 [Compound D-1, 4-(7-(4,4-difluoropiperidine-1-carbonyl)imidazo[1,2-a]pyridin-3-yl)benzoic acid]
< 100 nM | COc1cc(-n2ncc3cc(C(=O)N4CCC(F)(F)CC4)cnc32)ccc1-c1nnc[nH]1 [Compound C-74]
100 to 1000 nM | [O-][S+](CC1CC1)c1cnc2c(cnn2-c2ccc(-c3nnc[nH]3)cc2)c1 (centres unmarked) [Compound C-95]
100 to 1000 nM | CCOC(=O)Nc1cncc(-n2ncc3cc(C(=O)N4CC[C@H](C(C)(F)F)C4)cnc32)c1 [Compound C-65]
< 100 nM | Cc1cc(-n2ncc3cc(C(=O)N4CCC(F)(F)CC4)cnc32)ccc1-c1nnc[nH]1 [Compound C-72]
100 to 1000 nM | CCCC[S+]([O-])c1cnc2c(cnn2-c2cccc(-c3nnc[nH]3)c2)c1 (centres unmarked) [Compound C-92]
< 100 nM | O=C(c1cnc2c(cnn2-c2ccc(-c3nnc[nH]3)c(F)c2)c1)N1CCC(F)(F)CC1 [Compound C-63]
100 to 1000 nM | CCCC[S+]([O-])c1cnc2c(cnn2-c2cncc(NC(=O)OCC)c2)c1 (centres unmarked) [Compound C-94]
100 to 1000 nM | O=C(O)c1ccc(-c2cnc3cc(C(=O)N4CCC(F)(F)CC4)ccn23)cn1 [Compound D-2, 5-(7-(4,4-difluoropiperidine-1-carbonyl)imidazo[1,2-a]pyridin-3-yl)picolinic acid]
< 100 nM | O=C(c1cnc2c(cnn2-c2cc(Cl)cc(-c3nnc[nH]3)c2)c1)N1CCSCC1 [Compound C-66, (1-(3-chloro-5-(4H-1,2,4-triazol-3-yl)phenyl)-1H-pyrazolo[3,4-b]pyridin-5-yl)(thiomorpholino)methanone]
